Activity calls are given as the source filed them. No cut-off for these calls is given here.
Legend:
MDA-MB-231 = assay: Antiproliferative activity against human MDA-MB-231 cells after 48 hrs by SRB assay; assay type: functional; settings: MDA-MB-231, 48 h
MKN-7 = assay: Antiproliferative activity against human MKN7 cells after 48 hrs by SRB assay; assay type: functional; settings: MKN-7, 48 h
PC-3 = assay: Antiproliferative activity against human PC3 cells after 48 hrs by SRB assay; assay type: functional; settings: PC-3, 48 h
MKN-45 = assay: Antiproliferative activity against human MKN45 cells after 48 hrs by SRB assay; assay type: functional; settings: MKN-45, 48 h
SF-295 = assay: Antiproliferative activity against human SF295 cells after 48 hrs by SRB assay; assay type: functional; settings: SF-295, 48 h
HCT-15 = assay: Antiproliferative activity against human HCT15 cells after 48 hrs by SRB assay; assay type: functional; settings: HCT-15, 48 h
OVCAR-3 = assay: Antiproliferative activity against human OVCAR3 cells after 48 hrs by SRB assay; assay type: functional; settings: OVCAR-3, 48 h
SK-OV-3 = assay: Antiproliferative activity against human SKOV3 cells after 48 hrs by SRB assay; assay type: functional; settings: SK-OV-3, 48 h
HCT-116 = assay: Antiproliferative activity against human HCT116 cells after 48 hrs by SRB assay; assay type: functional; settings: HCT-116, 48 h
OVCAR-5 = assay: Antiproliferative activity against human OVCAR5 cells after 48 hrs by SRB assay; assay type: functional; settings: OVCAR-5, 48 h
KM12 = assay: Antiproliferative activity against human KM12 cells after 48 hrs by SRB assay; assay type: functional; settings: KM12, 48 h
SNB-75 = assay: Antiproliferative activity against human SNB75 cells after 48 hrs by SRB assay; assay type: functional; settings: SNB-75, 48 h
MKN-74 = assay: Antiproliferative activity against human MKN74 cells after 48 hrs by SRB assay; assay type: functional; settings: MKN-74, 48 h
NCI-H522 = assay: Antiproliferative activity against human NCI-H522 cells after 48 hrs by SRB assay; assay type: functional; settings: NCI-H522, 48 h
[1] = target: T1, DNA topoisomerase I (Bos taurus) (UniProt F1MN93); assay: Inhibition of calf thymus DNA topoisomerase 1 assessed as reduction in enzyme-mediated relaxation of supercoiled pBR322 plasmid DNA at 10 uM after 30 mins by agarose gel electrophoresis
T1 sequence (whole entry): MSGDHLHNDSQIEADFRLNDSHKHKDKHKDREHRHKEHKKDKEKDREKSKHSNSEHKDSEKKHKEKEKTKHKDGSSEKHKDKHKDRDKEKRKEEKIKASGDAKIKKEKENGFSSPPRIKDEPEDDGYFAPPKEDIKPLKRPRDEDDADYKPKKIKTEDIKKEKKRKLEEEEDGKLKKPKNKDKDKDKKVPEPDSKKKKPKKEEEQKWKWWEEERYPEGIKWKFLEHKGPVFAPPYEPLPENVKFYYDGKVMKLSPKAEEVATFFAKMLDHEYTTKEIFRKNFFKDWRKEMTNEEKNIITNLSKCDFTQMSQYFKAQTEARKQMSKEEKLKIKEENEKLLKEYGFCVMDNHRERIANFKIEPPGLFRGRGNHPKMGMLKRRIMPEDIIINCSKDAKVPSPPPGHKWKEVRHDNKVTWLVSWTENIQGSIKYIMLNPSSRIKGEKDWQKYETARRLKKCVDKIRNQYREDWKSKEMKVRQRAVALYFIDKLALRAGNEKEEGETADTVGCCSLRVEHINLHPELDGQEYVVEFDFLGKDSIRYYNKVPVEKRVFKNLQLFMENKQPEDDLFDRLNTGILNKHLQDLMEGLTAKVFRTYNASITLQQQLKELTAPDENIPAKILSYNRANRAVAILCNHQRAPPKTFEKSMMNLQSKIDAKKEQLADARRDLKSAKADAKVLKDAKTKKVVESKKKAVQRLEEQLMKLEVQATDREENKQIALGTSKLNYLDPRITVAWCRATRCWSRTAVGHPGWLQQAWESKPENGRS

DMS-114 = assay: Antiproliferative activity against human DMS114 cells after 48 hrs by SRB assay; assay type: functional; settings: DMS-114, 48 h
MKN-1 = assay: Antiproliferative activity against human MKN1 cells after 48 hrs by SRB assay; assay type: functional; settings: MKN-1, 48 h
NCI-H23 = assay: Antiproliferative activity against human NCI-H23 cells after 48 hrs by SRB assay; assay type: functional; settings: NCI-H23, 48 h
DU-145 = assay: Antiproliferative activity against human DU145 cells after 48 hrs by SRB assay; assay type: functional; settings: DU-145, 48 h
MCF7 = assay: Antiproliferative activity against human MCF7 cells after 48 hrs by SRB assay; assay type: functional; settings: MCF7, 48 h
[2] = Antiproliferative activity against human BSY1 cells after 48 hrs by SRB assay; assay type: functional; settings: BSY-1, 48 h
RXF 631 = assay: Antiproliferative activity against human RXF631L cells after 48 hrs by SRB assay; assay type: functional; settings: RXF 631, 48 h
OVCAR-4 = assay: Antiproliferative activity against human OVCAR4 cells after 48 hrs by SRB assay; assay type: functional; settings: OVCAR-4, 48 h
ACHN = assay: Antiproliferative activity against human ACHN cells after 48 hrs by SRB assay; assay type: functional
OVCAR-8 = assay: Antiproliferative activity against human OVCAR8 cells after 48 hrs by SRB assay; assay type: functional; settings: OVCAR-8, 48 h
SF-268 = assay: Antiproliferative activity against human SF268 cells after 48 hrs by SRB assay; assay type: functional; settings: SF-268, 48 h
[3] = target: T1, DNA topoisomerase I (Bos taurus); assay: Inhibition of calf thymus DNA topoisomerase 1 assessed as reduction in enzyme-mediated relaxation of supercoiled pBR322 plasmid DNA at 10 uM after 30 mins by ethidium bromide staining-based agarose gel electrophoresis
SNB-78 = assay: Antiproliferative activity against human SNB78 cells after 48 hrs by SRB assay; assay type: functional; settings: SNB-78, 48 h
LOX IMVI = assay: Antiproliferative activity against human LOXIMVI cells after 48 hrs by SRB assay; assay type: functional
St-4 = assay: Antiproliferative activity against human St-4 cells after 48 hrs by SRB assay; assay type: functional; settings: St-4, 48 h
SF-539 = assay: Antiproliferative activity against human SF539 cells after 48 hrs by SRB assay; assay type: functional; settings: SF-539, 48 h
A549 = assay: Antiproliferative activity against human A549 cells after 48 hrs by SRB assay; assay type: functional; settings: A549, 48 h
[4] = Antiproliferative activity against human HBC5 cells after 48 hrs by SRB assay; assay type: functional; settings: HBC5, 48 h
NCI-H226 = assay: Antiproliferative activity against human NCI-H226 cells after 48 hrs by SRB assay; assay type: functional; settings: NCI-H226, 48 h
U-251 = assay: Antiproliferative activity against human U251 cells after 48 hrs by SRB assay; assay type: functional; settings: U-251, 48 h
HT-29 = assay: Antiproliferative activity against human HT-29 cells after 48 hrs by SRB assay; assay type: functional; settings: HT-29, 48 h
DMS-273 = assay: Antiproliferative activity against human DMS273 cells after 48 hrs by SRB assay; assay type: functional; settings: DMS-273, 48 h
HCC 2998 = assay: Antiproliferative activity against human HCC2998 cells after 48 hrs by SRB assay; assay type: functional; settings: HCC 2998, 48 h
MKN-28 = assay: Antiproliferative activity against human MKN28 cells after 48 hrs by SRB assay; assay type: functional; settings: MKN-28, 48 h
[5] = Antiproliferative activity against human HBC4 cells after 48 hrs by SRB assay; assay type: functional; settings: HBC4, 48 h
NCI-H460 = assay: Antiproliferative activity against human NCI-H460 cells after 48 hrs by SRB assay; assay type: functional; settings: NCI-H460, 48 h

GI50 (MDA-MB-231): 115 nM
GI50 (MKN-7): 45.7 nM
GI50 (PC-3): 132 nM
GI50 (MKN-45): 32.4 nM
GI50 (HCT-15): 162 nM
GI50 (OVCAR-3): 39.8 nM
GI50 (SK-OV-3; read-out: GI50): 9.4 nM
GI50 (SK-OV-3; read-out: pGI50 (converted)): 9.33 nM
GI50 (HCT-116; read-out: GI50): 8.8 nM
GI50 (HCT-116; read-out: pGI50 (converted)): 8.91 nM
GI50 (OVCAR-5): 79.4 nM
GI50 (MKN-74): 52.5 nM
GI50 (NCI-H522; read-out: GI50): 1.8 nM
GI50 (NCI-H522; read-out: pGI50 (converted)): 1.82 nM
inhibition [1]: Active
GI50 (MKN-1): 37.1 nM
GI50 (NCI-H23): 4.57 nM
GI50 (DU-145; read-out: GI50): 2.5 nM
GI50 (DU-145; read-out: pGI50 (converted)): 2.51 nM
GI50 (MCF7; read-out: GI50): 9.6 nM
GI50 (MCF7; read-out: pGI50 (converted)): 9.55 nM
GI50 (OVCAR-4): 26.9 nM
GI50 (ACHN; read-out: GI50): < 1 nM
GI50 (ACHN; read-out: pGI50 (converted)): 1 nM
GI50 (OVCAR-8): 20.4 nM
inhibition [3]: Active
GI50 (A549): 4.17 nM
GI50 (NCI-H226): 89.1 nM
GI50 (U-251; read-out: GI50): 1.3 nM
GI50 (U-251; read-out: pGI50 (converted)): 1.32 nM
GI50 (HT-29): 3890 nM
GI50 (HCC 2998): 39.8 nM
GI50 (MKN-28; read-out: GI50): 33 nM
GI50 (MKN-28; read-out: pGI50 (converted)): 33.1 nM
GI50 (NCI-H460): 2.14 nM
Structure (SMILES): COc1cc2c(ccc3c4c(=O)oc5cc(O)c(OC)cc5c4n(C)c23)cc1O
GI50 (SF-295): 4.57 nM
GI50 (KM12): 46.8 nM
GI50 (SNB-75): 8.13 nM
GI50 (DMS-114): 3.89 nM
GI50 [2]: 33.9 nM
GI50 (RXF 631): 4680 nM
GI50 (SF-268): 2.19 nM
GI50 (SNB-78): 200 nM
GI50 (LOX IMVI; read-out: GI50): 2.6 nM
GI50 (LOX IMVI; read-out: pGI50 (converted)): 2.57 nM
GI50 (St-4): 10000 nM
GI50 (SF-539): 2.82 nM
GI50 [4]: 95.5 nM
GI50 (DMS-273): 2.04 nM
GI50 [5]: 13.5 nM
